Test results as given in patent US20130184330A1, “COMPOSITIONS AND METHODS FOR INDUCING CANCER CELL DEATH” (UNIVERSITY OF MIAMI, priority 2010, published 2013).
“Also recorded” adds a separate entry of the source.

Tests used:
[1] = tested on: AMPK and eif2-α phosphorylation, GRP78 and CHOP expression in MDA-MB-435 cells; assay: Western blot of ATP and ER stress/UPR markers; format: cell-based, human
Excerpt: (§1) Cell types: Human tumor cell lines 1469 (pancreatic) and MDA-MB-435 (melanoma) were purchased from American Type Culture Collection (ATCC), and maintained in DMEM with 1 g/l of glucose (Mediatech). Mouse embryonic fibroblasts (MEF) that are PERK knock-out and its wild type pair were a kind gift from Dr. Mark Lehrman (University of Southwestern Texas, Dallas, Tex.). MEFs that have wild type eif2-α and eif2-α with its serine51 mutated to alanine were a kind gift from Dr. Glen Barber (University of Miami, Miami, Fla.). All MEFS were maintained in RPMI with 2 g/l of glucose (Invitrogen). All culture media were supplemented with 10% fetal bovine serum (FBS) (Invitrogen), penicillin/streptomycin (Invitrogen) and 0.1% Plasmocin (only for cell passage) (InvivoGen) unless otherwise specified. Cells were grown under 5% CO2 at 37° C.
(§2) Immunoblotting analysis: Cells were seeded onto six-well plates and cultured for 18-22 h to reach 40-70% confluence. Following drug exposure for the indicated times, cells were harvested and lysed with the lysis buffer (100 mM Tris-HCl at pH 7.4, 1% SDS, phosphatase inhibitor cocktail 2 and protease inhibitor cocktail from Sigma-Aldrich). Protein concentrations of each sample were determined using a Micro BCA Protein Assay Kit (Thermo Scientific) according to the manufacturer's directions, and equal amounts of proteins were loaded onto 4-15% Tris-HCl gradient gels (except 12% gels for siRNA experiments) (Bio-Rad). After SDS-PAGE, proteins were transferred onto a polyvinylidene fluoride (PVDF) membrane (Millipore), blocked with 5% milk and probed with corresponding primary antibodies overnight (except 1 h for β-actin). The membrane was washed and probed with secondary antibodies for 1 h. Membrane was then incubated with SuperSignal West Pico or Femto Chemiluminescent Substrate (Thermo Scientific) and signals were visualized on Blue Lite Autorad Films (ISCBioExpress). All primary antibodies were used at 1:1000 dilution except for Atg7 (1:300) and β-actin (1:10000), and the secondary antibodies were used at 1:10000. Representative blots from at least three independent experiments were shown unless otherwise indicated.
(§3) siRNA transfection: Cells were seeded into 25-cm^2 flasks and cultured for 24 h to reach ˜60% confluence using antibiotics-free media. Then, cells were transfected with anti-Luc siRNA-1 (targeting luciiferase) or ON-TARGETplus SMARTpool siRNA against PERK or GCN2 using the DharmaFECT siRNA transfection reagent #2 (Dharmacon). Twenty-four hours after transfection, cells were collected and re-seeded onto 6-well or 24-well plates and drug-treated for immunoblotting or cytotoxicity analyses, respectively.

[2] = tested on: PERK−/− MEFs; assay: Cell death analysis in PERK knock-out MEFs; format: cell-based, mouse
Excerpt: as §1
(§4) Growth inhibition and Cytotoxicity assays: Cells were seeded onto 24-well plates and cultured for 18-22 h. After drug exposure for 48 hours, attached cells and their respective culture media were collected and centrifuged at 400 g for 5 min. The pellets were then resuspended in Hanks Balanced Salt Solution (HBSS) (Mediatech) and analyzed with Vi-Cell cell viability analyzer (Beckman Coulter) based on trypan blue exclusion. Results were shown as the percentages of dead cells out of total cells counted. Data were the averages of triplicate samples +SD from one representative experiment out of at least three independent analyses unless otherwise indicated.
as §3

[3] = tested on: PERK+/+ MEFs; assay: Cell death analysis in wild type MEFs; format: cell-based, mouse; conditions: similar conditions as for PERK−/− cells
Excerpt: as §1
as §4, with “Data were the averages of triplicate samples +SD from one representative experiment out of at least three independent analyses unless otherwise indicated.” left out

[4] = tested on: eif2-α and GCN2 phosphorylation in PERK−/− MEFs; assay: Western blot of phosphorylated eif2-α and GCN2 in PERK knock-out MEFs; format: cell-based, mouse
Excerpt: as §1, §2

[5] = tested on: MEF eif2a A/A; assay: Cell death analysis in MEFs with non-phosphorylatable eif2-α; format: cell-based, mouse; conditions: 48 hours
Excerpt: as §1
as §4, with “Data were the averages of triplicate samples +SD from one representative experiment out of at least three independent analyses unless otherwise indicated.” left out

[6] = tested on: patients with various tumor types; conditions: in combination with taxotere; cited from earlier work
[7] = tested on: MDA-MB-435 cells; assay: Growth inhibition assay, Vi-Cell trypan blue exclusion; format: cell-based, human; conditions: 48 hours, equivalent doses, i.e. 0.3 mM and 2 mM
Excerpt: as §1
as §4, with “Data were the averages of triplicate samples +SD from one representative experiment out of at least three independent analyses unless otherwise indicated.” left out

O=CC[C@@H](O)[C@H](O)[C@H](O)CO [2-DG, 2-Deoxy-D-glucose]
eIF2a phosphorylation ([1]; 2-DG 0.2 mM and 2 mM, 24 hours): phosphorylated (inhibited)
AMPK phosphorylation ([1]; 2-DG 0.2 mM, 24 hours): phosphorylated
levels of UPR chaperone GRP 78 ([1]; 2-DG, aerobic conditions): increased levels
toxicity of 2-DG in PERK−/− vs PERK+/+ MEFs ([2]; 48 hours): more toxic; also recorded: more sensitive
2-DG toxicity in PERK+/+ cells with siRNA against GCN2 or increased glutamine [3]: not increased
GCN2 phosphorylation induced by 2-DG ([4]; 2-DG 2 and 8 mM, 4 mM glutamine, 24 hours): induces phosphorylation of GCN2
phosphorylated eif2-α levels in PERK−/− vs PERK+/+ cells ([4]; as a function of time of treatment with 2-DG): significantly lower levels
sensitivity of eif2-α mutant MEFs to toxic effects of 2-DG vs parental [5]: more sensitive
tolerability in phase I trial [6]: well-tolerated

O=C[C@H](F)[C@@H](O)[C@H](O)[C@H](O)CO [2-FDG, 2-fluoro-deoxy-D-glucose]
growth inhibitory activity compared with 2-DG [7]: significantly less growth inhibitory activity than 2-DG
induction of UPR marker GRP 78 compared with 2-DG ([1]; equivalent doses, 0.3 mM and 2 mM): less induction
toxicity of 2-FDG in PERK−/− cells ([2]; doses that do not induce ER stress but block glycolysis, 48 hours): very little or no toxicity

NC(=O)CC[C@H](N)C(=O)O [glutamine]
2-DG toxicity in PERK−/− cells in 8 mM vs 4 mM glutamine ([2]; 8 mM glutamine, 2-DG 48 hours): increased toxicity
eif2-α phosphorylation with exogenous glutamine ([4]; 2-DG treated PERK−/− cells, exogenous glutamine): reduces
2-DG induced GCN2 phosphorylation with exogenous glutamine ([4]; glutamine increased to 8 mM): attenuated
